The text below walks through data of patent US9808004B2, “Synergistic combination to improve grape color and to alter sensory characteristics of wine” (Valent BioSciences Corporation, priority 2007, dated 2017).

Data set [1] deals with red wine grape cultivar 'Cabernet Sauvignon'. Description: Replicated field experiment on Cabernet Sauvignon wine grapes: grape quality at harvest. The format is in vivo. Particulars: 200 ppm of each compound applied, foliar at veraison. On the procedure:
(§1) A replicated field experiment was conducted on the red wine grape cultivar ‘Cabernet Sauvignon’ in the Riverland growing region of South Australia. The vineyard was 19 years old with a vine spacing of 3 m by 3 m. The plot size was nine vines/replicate with three replicates/treatment. […] Treatments were mixed with the adjuvant Agral 600 (10 mL/100 L v/v; CropCare Australasia, Pty Ltd.).

Data set [2] in a line: Quality of wine from treated Cabernet Sauvignon grapes (colour density, phenolics, tasting panel score). Also on record: species or system grape. The conditions noted are these: for Wine assessment: tasting panel score from 5 characteristics (color intensity, aroma intensity, body/fullness, flavor intensity, finish), 200 ppm of each compound at veraison. On the procedure:
as §1

Data set [3] deals with red table grape cultivar 'Crimson Seedless'. Description: Replicated field experiment on Crimson Seedless table grapes: colour development (harvestable clusters), firmness, berry weight, Brix; Synergy Index. The conditions noted are these: for Cumulative harvestable clusters: foliar, veraison plus seven days, Crimson Seedless; for Effect on cumulative harvestable cluster number (in words): applied alone, dose-dependent, 88 to 877 mg/vine; for Dose acting alone which produced the end point (QA, QB): end point 24.7 cumulative harvestable clusters; for Firmness: at harvest. The source says:
The vineyard was 12 years old and on overhead trellis with a vine spacing of 12 ft by 7 ft (518 vines/acre). Plot size was three vines/replicate, with six replicates/treatments. The area evaluated within each plot was one center vine and two half vines on each side for a total of two vines. Applications were made seven days after veraison (beginning of berry softening). On the day of application, red coloration was developing on about 10% of the berries. […] All treatments were mixed with the adjuvant Latron B-1956 (0.05% v/v; Dow AgroSciences LLC, Indianapolis, Ind.). Treatments were applied with a backpack mist blower at 200 gallons/acre (757 l/acre).
The total grape clusters were counted on the day of application. After treatment, the plots were evaluated weekly for color development by counting the number of harvestable colored grape clusters in each plot. All harvestable colored clusters were removed 79 days later to eliminate over-mature clusters. The number of harvestable colored grape clusters was expressed as cumulative harvestable clusters (number of harvestable clusters per two vines). Average berry firmness, weight and Brix (soluble solids) were evaluated 5 days later. Evaluation samples consisted of 10 second shoulders (second lateral branch of the main rachis) from 10 different clusters selected randomly from each plot. All berries in the evaluation samples were removed, counted, and weighed. A sub-sample of 20 to 30 berries was crushed for brix (soluble solids) analysis. Brix was measured with a handheld temperature compensating Leica Refractometer. An additional 10 berries were selected randomly for berry firmness. Berry firmness was determined by a hand held Wilson Penetrometer (0 to 1000 g) mounted on a stand with a 6 mm tip.
Synergy was determined by an industrially accepted method (Kull et al., 1961, Applied Microbiology 9:538-541 and Robertson and Ramesh, 1998, U.S. Pat. No. 5,716,629). Synergy Index=Qa/QA+Qb/QB where:
Qa=dose of compound A in mg/vine, in the mixture, which produced an end point
QA=dose of compound A in mg/vine, acting alone, which produced an end point.
Qb=[…] of compound B in mg/vine, in the mixture, which produced an end point.
QB=dose of compound B in mg/vine, acting alone, which produced an end point.
Synergy, additivity, or antagonism are shown when the Synergy Index is less than one, equal to one, or greater than one, respectively.

Where [4] appears, read: 200 ppm of each compound applied, foliar at veraison, Cabernet Sauvignon.
[5] abbreviates: 88 mg/vine of each compound applied.
Setting [6] is: 292 mg/vine of each compound applied.

Regarding “(S)-5-(1-hydroxy-2,6,6,-trimethyl-4-oxo-2-cyclohexen-1-yl)-3-methyl-(2Z,4E)-pentadienoic acid [S-ABA]”, the “Anthocyanins, grapes at harvest” value in data set [1] is “lower than in the untreated”; in data set [1] (listed as ABA) it was 0.78 mg/g. The Wine color density result in data set [2] (setting [4]) is listed as “lower than in the untreated”; in data set [2] (200 ppm of each compound applied, foliar at veraison, Cabernet Sauvignon, listed as ABA), 5.6. In data set [2] (setting [4]), this compound had a Wine phenolics of 20.2. For the same compound, the figures for the Wine assessment result in data set [2] and in data set [2] (listed as ABA) were “higher wine assessment score” and 2.7, respectively. Further, the Cumulative harvestable clusters in data set [3] (setting [5]) is on record as 11.8 no. per two vines; in data set [3] (setting [6]) it was 38.0 no. per two vines; in data set [3] (877 mg/vine), 43.8 no. per two vines. In data set [3], the “Effect on cumulative harvestable cluster number (in words)” value is “increased”. The “Dose acting alone which produced the end point (QA, QB)” value in data set [3] stood at 337 mg/vine.

In the case of `O=P(O)(O)CCCl` [Ethephon], the Wine assessment in data set [2] is on record as 2.3; in data set [2] (listed as ethephon) it was “did not affect”. Also, the Firmness is given as 765 g in data set [3] (setting [5]) and 709 g in data set [3] (877 mg/vine). Further, the Cumulative harvestable clusters was determined as 9.2 no. per two vines in data set [3] (setting [5]), 15.7 no. per two vines in data set [3] (setting [6]) and 40.2 no. per two vines in data set [3] (877 mg/vine). Further, the “Effect on cumulative harvestable cluster number (in words)” value in data set [3] is given as “increased”. For the same compound, in data set [3], the “Dose acting alone which produced the end point (QA, QB)” value was 484 mg/vine.
